The logP is a log measure of how a compound divides between an organic and an aqueous phase. Higher therefore signals a more lipophilic compound.

A short description of data set [1]: logP (partition coefficient). Type of data set: physicochemical. Conditions: source of the values not stated. From the text:
"logP" is defined as the decadic logarithm of the partition coefficient P which is the ratio of […], as the neutral molecule.

The nature of a further data set: in vivo. The settings on record: for Co (Brain), highest pro-galantamine concentration achieved in mouse brain: i.v. injection of 3 mg/kg, for Gal: galantamine after the same amount of galantamine; for Kp: in vivo. The protocol: In table 1, the key pharmacokinetic data of benzoyl-galantamine, of several other R1-pro-galantamines and of galantamine (for comparison) are listed. Table 1: Pharmacokinetic data of several R1-pro-galantamines in the mouse
Co is the highest pro-galantamine concentration (ng/ml) achieved in mouse brain after i.v. injection of 3 mg/kg of pro-galantamine. R-Pro ist he brain-to-blood concentration ratio of pro-galantamine, R-Gal that of galantamine under these experimental conditions. For comparison, Co and R-Gal are also provided for i.v. injection of the same amount of galantamine.
• Figure 1: Brain esterase inhibition by galantamine and several pro-galantamines. A 20% mouse brain homogenate was used, supplemented with 200 µM of acetylthiocholine as substrate, and the initial reaction kinetics were measured according to Riddles PW, Blakeley RL, Zerner B., "Reassessment of Ellman's reagent." Methods Enzymol. 1983;91:49-60. […] In derivative Gln 1063 R1 in formula I is -O-Si(CH3)2-C(CH3)2-C(CH3)2H. • Figure 2: Enzymatic cleavage of pro-galantamine to galantamine. Butyrylcholinesterase, 25 units/ml, was used. Reaction temperature was 37°C. Appearance of the fluorescent reaction product galantamine was determined by fluorescence detection. • Figure 3: Interaction of galantamine and pro-galantamine with a4ß2 neuronal nicotinic acetylcholine receptor ectopically expressed in HEK-293 cells. The increase in response to acetylcholine in the presence of galantamine and Gln-1062, respectively, was determined by whole-cell patch clamp recording. […] Scopolamine induces a memory deficit that can be measured by […] alternation in a T-maze trial. The cognition enhancing drugs were i.p. injected at several different doses together with scopolamine 20 min before a T-maze trial. Recovery was measured as a function of dose, and the EC50 was determined for each drug.
Determination of the pharmacokinetic profiles of Gln-1062 and its cleavage product galantamine in blood and brain. Determine the brain-to-blood concentration ratios of Gln-1062 and its cleavage product galantamine, and assess the blood-brain barrier penetration capacities.
Blood samples were collected from the retro-orbital plexus. 0.5 ml of blood was collected into a pre-labeled polypropylene micro centrifuge tube containing sodium citrate as the anticoagulant, and kept on ice.
Immediately after blood withdrawal, brain was perfused with phosphate buffer saline (pH 7.4), removed and frozen on dry ice.
Brain samples were thawed on ice and weighed. An appropriate volume ice cold homogenizing media (methanol: water::20:80,v/v) added. On ice, homogenized the brain sample with the polytron homogenizer and make up the volume with homogenizing media to get 1 gm of brain per 4 mL of homogenate. After homogenizing, immediately freezed the brain homogenate samples at -80°C until analysis.

The conditions of data set [2]: galantamine administered as the unmodified drug; cited from earlier work.
The target of data set [3] is T1, a4ß2 neuronal nicotinic acetylcholine receptor (Homo sapiens, UniProt P17787+P43681).
T1 construct: expressed in transfected cells; host or cells: HEK-293
As to the kind of experiment: Allosteric potentiation of nAChR in HEK-293 cells, whole-cell patch clamp. The data set is classed as cell-based. The settings on record: increase in response to acetylcholine, Figure 3. The protocol:
(§1) 1983;91:49-60. […] Butyrylcholinesterase, 25 units/ml, was used. Reaction temperature was 37°C.
Investigation of the allosteric modulation effect of drug candidates on nicotinic acetylcholine receptors (nAChRs) expressed in HEK-293 cells by electrophysiology. Results shown as figure 3
Single HEK-293 cells expressing either human α4β2, human α3β4, or chimeric chicken α7 (with mouse 5HT3) nAChR were plated on fibronectin-coated cover slips for 3 days before measurement. The selected nAChR containing cells were placed in the recording bath, filled with extracellular buffer (145 mM NaCl, 5 mM KCl, 1 mM MgCl2, 2 mM CaCl2, 10 mM D-glucose, 10 mM HEPES, pH 7.3, approximately 300 mOsm). […] A programmable puller (Sutter, USA) was used to prepare a twin pair of ready for use pipettes. […] 1, 5, 10, 50, 100, 500, 1,000, 5,000 and 10,000 nM, and solutions were applied to the cell surface during 500 ms pulses through the U-tube, and then corresponding currents, digitized to 10 kHz, were recorded for 10 s. […] The averaged peak amplitudes of the currents, measured in the presence of selected compound concentrations, were compared with those determined in the absence of compounds (control) and they were calculated as % of control. […]
In general terms: Patch clamp records ionic current or voltage across a cell membrane.

Data set [4] can be described thus: Reversal from scopolamine-induced amnesia in mice (T-maze alternation). Type of data set: in vivo. The settings on record: i.p., Figure 6. The protocol: as §1
Gln 1062, Gln 0979 and galanthamine were dissolved in 15% -hydroxypropyl-β-cyclodextrin in 96 mM NaCl (isotonic) supplied by the sponsor. Gln 1062 and Gln 0979 were used in concentrations of […], 0.03, 0.1 and 0.2 mg/ml, which when given in a volume of 10 ml/kg result in doses of 0.1, 0.3, 1 and 2 mg/kg i.p., respectively. Galanthamine was used in concentrations of 0.03, 0.1, 0.2 and 0.5 mg/ml, which when given in a volume of 10 ml/kg result in doses of 0.3, 1, 2 and 5 mg/kg i.p., respectively. Control animals received 15% -hydroxypropyl-β-cyclodextrin in 96 mM NaCl injection as a vehicle. […]
The potential cognitive enhancing property of Gln 1062, Gln 0979 and galanthamine were evaluated in scopolamine-treated mice in the T-maze alternation model under the same experimental conditions. […]
Memory performance was assessed by the percentage of spontaneous alternation in the T-maze. […]
The percentage of alternation over the 14 free-choice trials was determined for each mouse and was used as an index of working memory performance. […]
Analysis of variance (ANOVA) was performed on the result data. […] The drug induced reversion of scopolamine-induced memory deficit was calculated by setting the respective response of the saline/vehicle group as 100% and the scopolamine/vehicle group as 0% reversion. […]

Another data set addresses T2, brain cholinesterase (Mus musculus, UniProt P21836).
T2 construct: from tissue; host or cells: mouse brain homogenate
T2 sequence (P21836 32-614): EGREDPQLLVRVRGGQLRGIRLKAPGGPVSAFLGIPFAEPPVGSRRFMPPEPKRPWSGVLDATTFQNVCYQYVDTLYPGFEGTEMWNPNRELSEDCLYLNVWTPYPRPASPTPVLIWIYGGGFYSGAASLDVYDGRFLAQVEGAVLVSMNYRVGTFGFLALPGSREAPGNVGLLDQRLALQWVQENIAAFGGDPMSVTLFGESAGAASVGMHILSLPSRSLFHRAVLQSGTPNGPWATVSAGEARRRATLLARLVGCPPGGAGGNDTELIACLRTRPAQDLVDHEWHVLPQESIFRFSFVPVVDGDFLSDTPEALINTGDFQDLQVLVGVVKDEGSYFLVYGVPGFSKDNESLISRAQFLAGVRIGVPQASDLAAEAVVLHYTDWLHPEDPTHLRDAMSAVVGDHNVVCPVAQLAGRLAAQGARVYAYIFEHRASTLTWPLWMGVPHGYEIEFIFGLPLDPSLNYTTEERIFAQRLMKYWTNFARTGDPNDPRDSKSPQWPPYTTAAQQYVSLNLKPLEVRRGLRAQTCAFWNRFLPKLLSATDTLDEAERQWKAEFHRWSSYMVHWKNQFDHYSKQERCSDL
The data set can be described thus: Inhibition of brain esterase, modified Ellman test in mouse brain homogenate. The data set is classed as biochemical. Conditions: 20% mouse brain homogenate, 200 µM acetylthiocholine; Figure 1. The protocol:
as §1
The brain is removed from the animal (mouse), shock frozen in liquid nitrogen and stored at minus 80°C until use. Before preparing the extract, the frozen brain is thawed on ice and the weight is determined. Ice cold buffer (130 mM NaCl, 5 mM KCl, 2.5 mM CaCl2, 1 mM MgCl2, 5 mM Glucose, 5 mM HEPES, pH 7.4) is added to the thawed mouse brain (1:4, weight to volume, resulting in a 20 % brain homogenate). The tissue is then homogenized in a potter homogeniser on ice, moving the piston up and down 11 times at 240 rpm. The freshly prepared mouse brain homogenate is divided into aliquots.
A modified Ellmann's esterase test is used. Briefly the method relies on the cleavage of the substrate acetylthiocholine to acetate and thiocholine. […] The inhibition is expressed as per cent of the non inhibited reaction according to following equation: % Inhibition = 100*(1-(Slopeinhibited/Slopenoninhibited)). […]
On the technique in general: In Ellman's method for cholinesterases, released thiocholine reacts with DTNB.

T1 sequence (P43681 29-627 limits assumed): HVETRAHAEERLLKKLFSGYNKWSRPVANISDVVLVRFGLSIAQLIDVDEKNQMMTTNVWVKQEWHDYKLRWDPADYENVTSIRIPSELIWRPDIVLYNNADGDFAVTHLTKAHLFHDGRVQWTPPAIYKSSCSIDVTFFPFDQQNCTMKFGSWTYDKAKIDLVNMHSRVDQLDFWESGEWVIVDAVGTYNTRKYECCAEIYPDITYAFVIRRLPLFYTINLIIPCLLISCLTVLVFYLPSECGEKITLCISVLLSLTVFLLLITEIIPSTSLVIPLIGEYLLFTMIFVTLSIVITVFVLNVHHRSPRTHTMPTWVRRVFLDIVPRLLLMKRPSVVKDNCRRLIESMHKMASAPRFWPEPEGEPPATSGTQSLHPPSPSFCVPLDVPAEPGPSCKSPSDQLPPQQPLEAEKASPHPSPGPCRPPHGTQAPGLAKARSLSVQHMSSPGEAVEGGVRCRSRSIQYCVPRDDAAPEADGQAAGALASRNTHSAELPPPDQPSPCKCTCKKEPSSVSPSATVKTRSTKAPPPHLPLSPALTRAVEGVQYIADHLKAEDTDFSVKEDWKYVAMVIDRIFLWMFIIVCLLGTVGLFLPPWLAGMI
T1 sequence (P17787 26-502): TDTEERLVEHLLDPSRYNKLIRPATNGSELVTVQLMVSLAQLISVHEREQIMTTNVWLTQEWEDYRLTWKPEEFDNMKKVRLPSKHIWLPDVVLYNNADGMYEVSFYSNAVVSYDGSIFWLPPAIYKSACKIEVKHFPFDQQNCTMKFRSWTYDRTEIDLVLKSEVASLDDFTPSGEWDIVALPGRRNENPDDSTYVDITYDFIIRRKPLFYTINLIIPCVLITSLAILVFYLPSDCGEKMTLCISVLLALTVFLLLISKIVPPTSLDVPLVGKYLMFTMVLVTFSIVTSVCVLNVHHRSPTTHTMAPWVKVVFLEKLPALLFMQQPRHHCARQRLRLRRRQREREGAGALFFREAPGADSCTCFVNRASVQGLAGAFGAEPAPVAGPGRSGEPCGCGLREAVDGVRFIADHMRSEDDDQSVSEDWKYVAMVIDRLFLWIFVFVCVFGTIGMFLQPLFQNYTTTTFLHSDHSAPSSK

The molecule `COc1ccc2c3c1O[C@H]1C[C@@H](O)C=C[C@@]31CCN(C)C2` [Gal, galantamine] gave a log partition coefficient (logP) in data set [1] of 1.7. For the same molecule, in the data set “in vivo”, the “Co (Brain), highest pro-galantamine concentration achieved in mouse brain” value worked out at 1741 ng/mL. The Kp in the data set “in vivo” (mouse) is ~1.3; in the data set “in vivo” (mouse, iv, 3 mg/kg) it was 1.2. Further, in data set [2], the brain-to-plasma ratio was ~ 1.3. In addition, in data set [3], the “maximal enhancement of response” value is recorded as ~ 40%.
As to `COc1ccc2c3c1O[C@H]1C[C@@H](OC(=O)c4ccccc4)C=C[C@@]31CCN(C)C2` [Gln 1062, (4aS,6R,8aS)-4a,5,9,10,11,12-Hexahydro-3-methoxy-11-methyl-6H-benzofuro[3a,3,2-ef][2]benzazepin-6-ol, benzoate (ester)], in data set [1], the lipophilicity (logP) was determined as 3. Besides, in the data set “in vivo” (mice), the “brain-to-blood concentration ratio (RBB-proGal)” value is reported as > 19. For the same molecule, the “concentration in blood at start of curve” value in the data set “in vivo” (mouse blood, 3mg/kg, Figure 4b) is “about 0.3 µg/g”. The “Co (Brain), highest pro-galantamine concentration achieved in mouse brain” value in the data set “in vivo” was 4812 ng/mL. In the data set “in vivo” (mouse, i.v. 3 mg/kg of pro-galantamine), the “R-Pro, brain-to-blood concentration ratio of pro-galantamine” value came out at 19.3. Besides, the “R-Gal, brain-to-blood concentration ratio of galantamine” value in the data set “in vivo” (mouse, i.v. 3 mg/kg of pro-galantamine, for Gal: same amount of galantamine) turned out to be 2.2. In addition, the “efficacy in reversing scopolamine-induced amnesia relative to galantamine” value in data set [4] is “approximately 4 times”. Further, in data set [3], the “maximal enhancement of response” value is on record as ~ 17%. Also, on brain cholinesterase, the “inhibition of brain esterase” value is “little, if any cholinesterase inhibitory activity”.

Source of the values: patent EP2137192B1, “Derivatives of galantamine as pro-drugs for the treatment of human brain diseases” (priority 2008, dated 2009).
